Results reported in patent US20160067193A1, “TOPICAL PTEROSTILBENE COMPOSITIONS FOR USE IN TREATING UV-INDUCED SKIN DAMAGE AND HYPERPLASIA” (The Regents of the University of California, priority 2014, published 2016).

How the values were obtained:
skin of SKH-1 mice [1] = experiment: UV-B induced visual skin damage (redness) in SKH-1 mice, topical treatment; format: in vivo; conditions: topical 10 μmol/0.2 ml acetone/mouse 30 min before 180 mJ/cm^2 UV-B, every 2 days, 7 treatments, 5 mice per group
Protocol: FIG. 2 depicts the manner in which pterostilbene prevents UV-B induced damage in the skin of SKH-1 mice. […] Photographs show representative mice after 4th treatment.
(§1) UV-B exposure. Mice were exposed to a single dose of 180 mJ/cm^2 UVB radiation delivered via broadband UVB lamps (TL 40 W/12 RS; Philips) emitting 290-350 nm light with a peak emission at 312 nm. The irradiance was measured using a thermopile sensor (818P-001-12; Newport Inc., Irvine, Calif.) and power meter (842-PE; Newport Inc.).
Hairless SKH-1 mice were used to evaluate the effectiveness of pterostilbene at preventing UV-mediated damage in skin. The SKH-1 model is ideally suited for this purpose and is commonly used in preclinical studies and yielded valuable results. […] To ascertain if pterostilbene could also prevent those molecular alterations, we replicated these experiments. […] For all topical treatments 200 μl total volume was applied to the back skin of the mouse. For acetone group, 200 μl of acetone was applied. […] These mice were treated every 2 days for 7 total treatments. […] 24 hrs after last treatment, mice were euthanized, skin bi-fold measurements taken and back skins collected. As shown in FIGS. 2 and 3A-B, pterostilbene prevented UV-B-induced damage in mouse skin. […] This prevention of visual skin damage by pterostilbene correlated nicely with the prevention of DNA damage. […]

[2] = rats, relative to resveratrol; cited from earlier work
mouse epidermis = conditions: cited from earlier work
[3] = cited from earlier work; for bioavailability: in vivo
skin of SKH-1 mice [4] = experiment: UV-B mediated bi-fold skin thickening and hyperplasia (H&E) in SKH-1 mice; format: in vivo; conditions: topical 10 μmol/mouse before 180 mJ/cm^2 UV-B
Protocol: FIG. 3C depicts the manner in which pterostilbene prevents UV-mediated bi-fold skin thickening. Bi-fold skin measurements (mm) were made using a digital caliper. At least three measurements for each mouse were taken along the back.
FIG. 4 depicts the manner in which pterostilbene prevents UV-mediated hyperplasia. H&E stains of back skins from mice in the indicated treatment arms (i.e., UV-B treated and control) were performed.
as §1
Hairless SKH-1 mice were used to evaluate the effectiveness of pterostilbene at preventing UV-mediated damage in skin. The SKH-1 model is ideally suited for this purpose and is commonly used in preclinical studies and yielded valuable results. […] To ascertain if pterostilbene could also prevent those molecular alterations, we replicated these experiments. […] For all topical treatments 200 μl total volume was applied to the back skin of the mouse. For acetone group, 200 μl of acetone was applied. […] These mice were treated every 2 days for 7 total treatments. […]

skin of SKH-1 mice [5] = experiment: ELISA of UV-B induced DNA damage (CPD, 64 pp) in back skin DNA of SKH-1 mice; format: in vivo; conditions: topical 10 μmol/mouse before 180 mJ/cm^2 UV-B, 14-day experiment
Source text: FIGS. 3A and 3B depict the manner in which pterostilbene prevents UV-B induced DNA damage in the skin of SKH-1 mice, namely (A) CPD or (B) 64 pp DNA damage. ELISAs are shown for different arms of mouse study (Abs. 492 nm). * indicates p<0.01 as compared with vehicle (VEH). (RES) is resveratrol and (PTERO) is pterostilbene. NS is not significant.
as §1
ELISAS. DNA was isolated from snap frozen whole back skin using Qiagen QIAamp Blood mini kit (cat #51104) per manufacturer's instructions. ELISAs were performed on purified DNA with anti-CPD (clone TDM2) and anti-64 PP (clone 64M-2) antibodies using manufacturer's protocol and read using a DTX 800 Multimode Detector plate reader (Beckman Coulter) using standard settings from colorimetric detection. Four technical replicates were used and DNA-free wells were used as negative control.
Hairless SKH-1 mice were used to evaluate the effectiveness of pterostilbene at preventing UV-mediated damage in skin. The SKH-1 model is ideally suited for this purpose and is commonly used in preclinical studies and yielded valuable results. […] To ascertain if pterostilbene could also prevent those molecular alterations, we replicated these experiments. […] For all topical treatments 200 μl total volume was applied to the back skin of the mouse. For acetone group, 200 μl of acetone was applied. […] These mice were treated every 2 days for 7 total treatments. […] 24 hrs after last treatment, mice were euthanized, skin bi-fold measurements taken and back skins collected. As shown in FIGS. 2 and 3A-B, pterostilbene prevented UV-B-induced damage in mouse skin. […] This prevention of visual skin damage by pterostilbene correlated nicely with the prevention of DNA damage. […] Therefore pterostilbene prevented the 2 major types of UV-induced DNA damage (CPD and 64 pp) in the skin of SKH-1 mice.
DNA was obtained from the back skin of the SKH-1 mice from the experiment above after completion of the 14-day experiment. This DNA was then examined for DNA damage (both CPD and 64 pp) quantitatively using ELISA as previously described (Nishiwaki, Y., et al., “Trichothiodystrophy fibroblasts are deficient in the repair of ultraviolet-induced cyclobutane pyrimidine dimers and (6-4) photoproducts,” J. Invest. Dermatol. (2004) 122: 526-32). […] Quantification of DNA damage was measured at 492 nm by a spectrophotometer.

[6] = In vitro glucuronidation assay with pooled human liver microsomes; format: in vitro ADME; conditions: 100 μg pooled human liver microsomes (n=20), 500 μM compound, HPLC 308 nm
[7] = 125 mg orally twice a day, human; cited from earlier work

| Compound | redness (sunburn) on back skin (skin of SKH-1 mice [1]) | increased bioavailability versus resveratrol [2] [fold] | COX-2 activation and TPA-induced tumor formation in mouse epidermis in vivo (mouse epidermis; 12-O-tetradecanoylphorbol-13-acetate (TPA), mouse epidermis in vivo) | potency versus resveratrol in inhibition of NF-KB, AP-1 and iNOS activation in mouse skin (mouse epidermis; mouse skin) | half life t1/2 in blood [3] | bioavailability [3] | UV-mediated bi-fold skin thickening (skin of SKH-1 mice [4]; digital caliper on dorsal skin, versus vehicle+UV-B) | UV-mediated hyperplasia (H&E stain of back tissue) (skin of SKH-1 mice [4]; formalin fixed paraffin embedded back tissue) | 64 pp DNA damage by ELISA (Abs. 492 nm) (skin of SKH-1 mice [5]) | CPD DNA damage by ELISA (Abs. 492 nm) (skin of SKH-1 mice [5]) | extent of metabolism (glucuronidation) after 2 hours [6] [%] | overall blood pressure [7] | toxicity in patients [7] |
| --- | --- | --- | --- | --- | --- | --- | --- | --- | --- | --- | --- | --- | --- |
| COc1cc(/C=C/c2ccc(O)cc2)cc(OC)c1 [pterostilbene, 3,5-dimethoxy-4′-hydroxy-trans-stilbene] | no redness was observed on any of the 5 mice | 5 | prevent COX-2 activation and 12-O-tetradecanoylphorbol-13-acetate (TPA)-induced tumor formation | equally or significantly more potent than resveratrol | about 105 minutes | orally bioavailable | prevented UV-mediated bi-fold skin thickening | prevented UV-mediated hyperplasia at the cellular level | no 64 pps are observed | no CPDs were detected | 20 | reduction in overall blood pressure was observed | no toxicity reported |
| Oc1ccc(C=Cc2cc(O)cc(O)c2)cc1 [resveratrol, reference compound] | able to limit the amount of redness observed on the back, it did not prevent it |  |  |  | about 14 minutes | poor bioavailability |  |  | no 64 pps are observed | quantitatively detected above background |  |  |  |
